Common to all, as to type: physicochemical
A short description of series [1]: Spectroscopic study of protecting group hydrolysis rate. The note with it: 200 mM Acetic acid at pH 3.5, 2 mM boron compound, 20 mM KHF2. How it is done:
Prior to ^18F-labeling of the final DNA compound or other boron-based fluoride acceptors, dilute labeling conditions were developed for 4-(4,4,5,5-Tetramethyl-1,3,2-dioxaborolan-2-yl) aniline with cold ^19F and the expectation that these labeling conditions can be extrapolated onto ^18F studies. The general conditions established are as follows: 200 mM Acetic acid at pH 3.5, with 2 mM boron compound, and 20 mM KHF2.

A short description of series [2]: Kinetics of fluorination of boron compound with KHF2. Conditions: 100 mM Acetic acid at pH 3.5. An excerpt: Prior to ^18F-labeling of the final DNA compound or other boron-based fluoride acceptors, dilute labeling conditions were developed for 4-(4,4,5,5-Tetramethyl-1,3,2-dioxaborolan-2-yl) aniline with cold ^19F and the expectation that these labeling conditions can be extrapolated onto ^18F studies. […]

A short description of series [3]: 19F NMR stability of B-F bond with 20 mM boric acid chase or in presence of boric acid. The note with it: 20 mM boric acid chase (chase at 1 h, NMR at 2 h) or fluorination in presence of 20 mM boric acid. How it is done:
Fluorination after a 20 mM boric acid chase (chase at 1 h, NMR taken at 2 h): ^19F NMR (300 MHz, D2O, TFA ref) δ −50.23 (fluorine-boric acid species #1), δ−53.89 (KHF2), δ −62.3 (fluorine-boric acid species #2), δ −66.30 (s, φBF3). Fluorination in the presence of boric acid: ^19F NMR (300 MHz, D2O, TFA ref) δ −50.02 (fluorine-boric acid species #1), δ −52.47 (KHF2), δ −62.0 (fluorine-boric acid species #2), δ −65.65 (s, φBF3).

The structures appear in SMILES notation.

For the compound `CC1(C)OB(c2ccc(N)cc2)OC1(C)C` [4-(4,4,5,5-Tetramethyl-1,3,2-dioxaborolan-2-yl) aniline], in series [1], the “protecting group hydrolysis rate” value stood at 0.66 ± 0.04 min⁻¹. The same compound displayed a rate of fluorination in series [2] of 2.8 ± 0.3 min⁻¹.
`[NH3+]c1ccc([B-](F)(F)F)cc1` [φBF3, 4-Ammoniumphenyl Trifluoroborate]: in series [3], the “stability of B—F bond (persistence of 19F NMR peak near δ −66)” value was “stable”.

The values are drawn from patent US8114381B2, “Radiolabeled compounds and compositions, their precursors and methods for their production” (The University of British Columbia, priority 2004, dated 2012).
